How the values were obtained:
[1] = Pharmacokinetic screening, iv; assay type: in vivo; conditions: CD-1 mice, 3 mg/kg iv
Human PPARδ LBD = Human PPARδ LBD (Homo sapiens (Human), UniProt Q03181); assay: PPAR delta transactivation (PPARδ Activity Screen, GAL4-PPARδ LBD luciferase reporter in CV-1 cells); assay type: cell-based
Description: Cell Culture and Transfection:
CV-1 cells were grown in DMEM+10% charcoal stripped FCS. Cells were seeded into 384-well plates the day before transfection to give a confluency of 50-80% at transfection. A total of […] containing 0.64 micrograms pCMX-PPARDelta LBD, 0.1 micrograms pCMXβGal, 0.08 micrograms pGLMH2004 reporter and 0.02 micrograms pCMX empty vector was transfected per well using FuGene transfection reagent according to the manufacturer's instructions (Roche). Cells were allowed to express protein for 48 h followed by addition of compound.
Human PPARδ was used to PCR amplify the PPARδ LBD. […] Ensuing fusions were verified by sequencing.
Compounds: All compounds were dissolved in DMSO and diluted 1:1000 upon addition to the cells. Compounds were tested in quadruple in concentrations ranging from 0.001 to 100 μM. Cells were treated with compound for 24 h followed by luciferase assay. Each compound was tested in at least two separate experiments.
Statistical Methods: The activity of a compound is calculated as fold induction compared to an untreated sample. For each compound the efficacy (maximal activity) is given as a relative activity compared to GW501516, a PPARδ agonist. […] EC50 values were calculated via non-linear regression using GraphPad PRISM (GraphPad Software, San Diego, Calif.).

[2] = test system: C57BL6J mice, thermal injury to the TA; assay: Muscle regeneration after freeze burn (thermal) injury to the TA, oral GW501516; assay type: in vivo
FGF1a promoter = assay: Luciferase reporter assay of FGF1a promoter co-transfected with PPARδ; assay type: cell-based; conditions: PPARδ with or without ligand

Sequence of Human PPARδ LBD (Q03181 128-441 limits assumed): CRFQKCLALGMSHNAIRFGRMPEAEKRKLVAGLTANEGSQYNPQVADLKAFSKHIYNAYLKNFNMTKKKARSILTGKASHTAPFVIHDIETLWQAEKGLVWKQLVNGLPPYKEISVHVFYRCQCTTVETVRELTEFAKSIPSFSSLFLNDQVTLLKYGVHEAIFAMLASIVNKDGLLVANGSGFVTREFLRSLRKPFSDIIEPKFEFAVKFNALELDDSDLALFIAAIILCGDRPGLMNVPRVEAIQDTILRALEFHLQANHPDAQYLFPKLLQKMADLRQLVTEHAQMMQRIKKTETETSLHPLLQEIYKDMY

| SMILES | Mice_PK_IV_AUC (0-inf) [1] | Mice_PK_IV_Cl [1] | further results |
| --- | --- | --- | --- |
| CN(Cc1ccccc1OCCC[C@H]1CC1C(=O)O)C(=O)c1ccc(-c2ccco2)cc1 (single isomer, unassigned) [Compound 8u, (1R*,2S*)-2-(3-(2-((4-(furan-2-yl)-N-methylbenzamido)methyl)phenoxy)propyl) cyclopropane-1-carboxylic acid] | 30142.00 ng·h/mL | 1.70 mL/min/kg | – |
| CN(Cc1ccccc1OCCC[C@H]1C[C@H]1C(=O)O)C(=O)c1ccc(-c2ccco2)cc1 (single isomer, unassigned) [Compound 8w] | – | 1.70 mL/min/kg | – |
| CN(Cc1ccccc1OCCC[C@@H]1C[C@@H]1C(=O)O)C(=O)c1ccc(-c2ccco2)cc1 (single isomer, unassigned) [Compound 8x] | – | 1.90 mL/min/kg | – |
| Cc1cc2cc(C(=O)N(C)Cc3ccccc3OCCCCCC(=O)O)ccc2o1 [Comparator Cmpd. 3, reference compound] | [AUC (0-inf) = 1788.0 ng * hr/ml] | Mice_PK_IV_Cl = 27.95 ml/min/kg | – |
| C/C(=C\COc1ccc(C(F)(F)F)cc1CN(C)C(=O)c1ccc(-c2ccco2)cc1)CCC(=O)O [Compound 8aa, (E)-6-(2-((4-(furan-2-yl)-N-methylbenzamido)methyl)-4-(trifluoromethyl)phenoxy)-4-methylhex-4-enoic acid] | – | – | EC50 (Human PPARδ LBD; CV-1 cells, 24 h): 683 nM |
| C/C(=C\COc1ccc(C2CC2)cc1CN(C)C(=O)c1ccc(-c2ccco2)cc1)CCC(=O)O [Compound 8bb, (E)-6-(4-cyclopropyl-2-((4-(furan-2-yl)-N-methylbenzamido)methyl)phenoxy)-4-methylhex-4-enoic acid] | – | – | inhibition at 10 µM (Human PPARδ LBD; CV-1, @ 10 uM): 58% |
| C/C(=C\COc1ccccc1CN(C)C(=O)c1ccc(-c2ccco2)c(F)c1)CCC(=O)O [Compound 8c, (E)-6-(2-((3-fluoro-4-(furan-2-yl)-N-methylbenzamido)methyl)phenoxy)-4-methylhex-4-enoic acid] | 1459.00 ng·h/mL | 34.30 mL/min/kg | – |
| CN(Cc1ccccc1OCCC/C=C/C(=O)O)C(=O)c1ccc(-c2ccco2)cc1 [Compound 8cc, (E)-6-(2-((4-(furan-2-yl)-N-methylbenzamido)methyl)phenoxy)hex-2-enoic acid] | 748.00 ng·h/mL | 66.87 mL/min/kg | – |
| C/C(=C\COc1ccccc1CN(C)C(=O)c1ccc(-c2ccco2)c(Cl)c1)CCC(=O)O [Compound 8d, (E)-6-(2-((3-chloro-4-(furan-2-yl)-N-methylbenzamido)methyl)phenoxy)-4-methylhex-4-enoic acid] | 1443.00 ng·h/mL | 34.65 mL/min/kg | – |
| C/C(=C\COc1ccccc1CN(C)C(=O)c1ccc(-c2ccc(C)o2)cc1)CCC(=O)O [Compound 8e, (E)-4-methyl-6-(2-((N-methyl-4-(5-methylfuran-2-yl)benzamido)methyl)phenoxy)hex-4-enoic acid] | 2166.00 ng·h/mL | 23.10 mL/min/kg | – |
| C/C(=C\COc1ccccc1CN(C)C(=O)c1ccc2oc(C)cc2c1)CCC(=O)O [Compound 8f, (E)-6-(2-((N,2-dimethylbenzofuran-5-carboxamido)methyl)phenoxy)-4-methylhex-4-enoic acid] | – | 40.02 mL/min/kg | – |
| C/C(=C\COc1ccc(F)cc1CN(C)C(=O)c1ccc(-c2ccco2)cc1)CCC(=O)O [Compound 8g, (E)-6-(4-fluoro-2-((4-(furan-2-yl)-N-methylbenzamido)methyl)phenoxy)-4-methylhex-4-enoic acid] | 2195.00 ng·h/mL | 23.00 mL/min/kg | – |
| CC(CCOc1ccccc1CN(C)C(=O)c1ccc(-c2ccco2)cc1)CCC(=O)O (centres unmarked) [Compound 8h, 6-(2-((4-(furan-2-yl)-N-methylbenzamido)methyl)phenoxy)-4-methylhexanoic acid] | 11843.00 ng·h/mL | 4.20 mL/min/kg | – |
| C/C(=C\C(=O)O)CCCOc1ccccc1CN(C)C(=O)c1ccc(-c2ccco2)cc1 [Compound 8i, (E)-6-(2-((4-(furan-2-yl)-N-methylbenzamido)methyl)phenoxy)-3-methylhex-2-enoic acid] | 4691.00 ng·h/mL | 10.65 mL/min/kg | – |
| C/C(=C\CCCOc1ccccc1CN(C)C(=O)c1ccc(-c2ccco2)cc1)C(=O)O [Compound 8k, (E)-6-(2-((4-(furan-2-yl)-N-methylbenzamido)methyl)phenoxy)-2-methylhex-2-enoic acid] | 12804.00 ng·h/mL | 3.92 mL/min/kg | – |
| CN(Cc1ccccc1/C=C/CCCCC(=O)O)C(=O)c1ccc(-c2ccco2)cc1 [Compound 8l, (E)-7-(2-((4-(furan-2-yl)-N-methylbenzamido)methyl)phenyl)hept-6-enoic acid] | 5161.00 ng·h/mL | 9.68 mL/min/kg | – |
| C/C(=C\COc1ccc(C)cc1CN(C)C(=O)c1ccc(-c2ccco2)cc1)CCC(=O)O [Compound 8n, (E)-6-(2-((4-(furan-2-yl)-N-methylbenzamido)methyl)-4-methylphenoxy)-4-methylhex-4-enoic acid] | – | 5.10 mL/min/kg | – |
| CC(CCCCOc1ccccc1CN(C)C(=O)c1ccc(-c2ccco2)cc1)C(=O)O (centres unmarked) [Compound 8o, 6-(2-((4-(furan-2-yl)-N-methylbenzamido)methyl)phenoxy)-2-methylhexanoic acid] | 11397.00 ng·h/mL | 2.78 mL/min/kg | – |
| CN(Cc1ccccc1OCc1cccc(CCC(=O)O)c1)C(=O)c1ccc(-c2ccco2)cc1 [Compound 8p, 3-(3-((2-((4-(furan-2-yl)-N-methylbenzamido)methyl)phenoxy)methyl)phenyl)propanoic acid] | 288.90 ng·h/mL | 173.05 mL/min/kg | – |
| CN(Cc1ccccc1OCc1cccc(CC(=O)O)c1)C(=O)c1ccc(-c2ccco2)cc1 [Compound 8q, 2-(3-((2-((4-(furan-2-yl)-N-methylbenzamido)methyl)phenoxy)methyl)phenyl)acetic acid] | 622.50 ng·h/mL | 80.32 mL/min/kg | – |
| CN(Cc1ccccc1OCCCCC(C)(C)C(=O)O)C(=O)c1ccc(-c2ccco2)cc1 [Compound 8s, 6-(2-((4-(furan-2-yl)-N-methylbenzamido)methyl)phenoxy)-2,2-dimethylhexanoic acid] | 48454.90 ng·h/mL | 1.03 mL/min/kg | – |
| CN(Cc1ccccc1OCCCC1CC1C(=O)O)C(=O)c1ccc(-c2ccco2)cc1 (centres unmarked) [Compound 8t, 2-(3-(2-((4-(furan-2-yl)-N-methylbenzamido)methyl)phenoxy)propyl) cyclopropane-1-carboxylic acid] | – | 3.08 mL/min/kg | – |
| Cc1cc(SCc2sc(-c3ccc(C(F)(F)F)cc3)nc2C)ccc1OCC(=O)O [GW501516] | – | – | Evans Blue dye uptake, proportion of muscle CSA stained ([2]; 5 mg/kg orally, 4 days prior to and 5 days after injury, 5 days after the injury): 4.9%; expression of inflammatory marker genes by QPCR ([2]; 3 days after the injury): significantly reduced; reduction in the proportion of stained area ([2]; 5 days after the injury, versus vehicle): 34.7%; PPARδ target genes (PDK4, CPT1b, and catalase) in TA by QPCR ([2]; 9 day treatment): Up-regulation; myoblast proliferation (BrdU positive nuclei) ([2]; BrdU injection at 48 hours after the injury): promoted myoblast proliferation; number of quiescent satellite cells ([2]; after 9 days or 4 weeks of ligand treatment): an increase in the number of quiescent satellite cells was not observed; induction of FGF1a (luciferase reporter) (FGF1a promoter): induction of FGF1a |

— patent US10188627B2, “PPAR agonists, compounds, pharmaceutical compositions, and methods of use thereof” (Mitobridge, Inc., priority 2014, dated 2019)
